Source: patent US11542274B1, “Therapeutic compounds and methods of use thereof” (AGENCY FOR SCIENCE, TECHNOLOGY AND RESEARCH (A*STAR), priority 2019, dated 2023)

System: RAMOS cells (Burkitt's lymphoma cell line)
Assay: Anti-proliferation assay (CellTiter-Glo)
Assay type: cell-based
Details: Homo sapiens, 72 h, 3 days
Method: In cell growth experiments, cells were seeded in 96-well cell culture plates at a density of 3000 of RAMOS cells/well in 100 μL of culture medium. 100 μL of the diluted solution containing the tested compound was added to the appropriate wells of the cell plate. After addition of the tested compound, the cells were incubated at 37° C. in an atmosphere of 5% CO2 for 3 days. CellTiter-Glo (CTG) reagent from the Promega CellTiter-Glo Luminescent Cell Viability Assay kit (#G7572) was added into an OptiPlate 96 (Perkin Elmer, White, Opaque, #6005299) in the dark, incubated for at least 2 hrs, and luminescence signal was read using Tecan Safire II Multi-Mode Plate Reader. The GI50 was calculated by nonlinear regression analysis using GraphPad Prism5 software.
GI50 is the concentration for 50% of maximal inhibition of cell proliferation.

Row | GI50 | SMILES
1 | 0.1 to 1 µM | Cc1sc2c(c1C)C(c1ccc(Cl)cc1)=N[C@@H](CC(=O)NCCOCCOCCOCCNc1cc(-c3ccc4c(c3)NC(=O)C4)ccn1)c1nnc(C)n1-2 [Compound 113, (S)-2-(4-(4-chlorophenyl)-2,3,9-trimethyl-6H-thieno[3,2-f][1,2,4]triazolo[4,3-a][1,4]diazepin-6-yl)-N-(2-(2-(2-(2-((4-(2-oxoindolin-6-yl)pyridin-2-yl)amino)ethoxy)ethoxy)ethoxy)ethyl)acetamide]
2 | 0.001 to 0.1 µM | Cc1sc2c(c1C)C(c1ccc(Cl)cc1)=N[C@@H](CC(=O)NC1CC3(C1)CC(Nc1ncccc1-c1ccc4c(c1)CC(=O)N4)C3)c1nnc(C)n1-2 (stereo partly drawn) [Compound 138, (S)-2-(4-(4-chlorophenyl)-2,3,9-trimethyl-6H-thieno[3,2-f][1,2,4]triazolo[4,3-a][1,4]diazepin-6-yl)-N-(6-((3-(2-oxoindolin-5-yl)pyridin-2-yl)amino)spiro[3.3]heptan-2-yl)acetamide]
3 | 0.001 to 0.1 µM | Cc1sc2c(c1C)C(c1ccc(Cl)cc1)=N[C@@H](CC(=O)NCCOCCOCCOCCC(=O)NC1CCN(C(=O)c3ccc4c(c3)CC(=O)N4)CC1)c1nnc(C)n1-2 [Compound 109, (S)-3-(2-(2-(2-(2-(4-(4-chlorophenyl)-2,3,9-trimethyl-6H-thieno[3,2-f][1,2,4]triazolo[4,3-a][1,4]diazepin-6-yl)acetamido)ethoxy)ethoxy)ethoxy)-N-(1-(2-oxoindoline-5-carbonyl)piperidin-4-yl)propanamide]
4 | > 1 µM | Cc1sc2c(c1C)C(c1ccc(Cl)cc1)=N[C@@H](CC(=O)NCCOCCOCCOCCC(=O)NC1CCN(C(=O)c3ccc4c(c3)NC(=O)C4)CC1)c1nnc(C)n1-2 [Compound 110, (S)-3-(2-(2-(2-(2-(4-(4-chlorophenyl)-2,3,9-trimethyl-6H-thieno[3,2-f][1,2,4]triazolo[4,3-a][1,4]diazepin-6-yl)acetamido)ethoxy)ethoxy)ethoxy)-N-(1-(2-oxoindoline-6-carbonyl)piperidin-4-yl)propanamide]
5 | 0.001 to 0.1 µM | Cc1sc2c(c1C)C(c1ccc(Cl)cc1)=N[C@@H](CC(=O)Nc1ccc(OCCOCCOCCOCCNc3ccc(-c4ccc5c(c4)CC(=O)N5)cc3)cc1)c1nnc(C)n1-2 [Compound 104, (S)-2-(4-(4-chlorophenyl)-2,3,9-trimethyl-6H-thieno[3,2-f][1,2,4]triazolo[4,3-a][1,4]diazepin-6-yl)-N-(4-(2-(2-(2-(2-((4-(2-oxoindolin-5-yl)phenyl)amino)ethoxy)ethoxy)ethoxy)ethoxy)phenyl)acetamide]
6 | 0.001 to 0.1 µM | Cc1sc2c(c1C)C(c1ccc(Cl)cc1)=N[C@@H](CC(=O)Nc1ccc(OCCOCCNC(=O)c3cccc(-c4ccc5c(c4)CC(=O)N5)c3)cc1)c1nnc(C)n1-2 [Compound 106, (S)—N-(2-(2-(4-(2-(4-(4-chlorophenyl)-2,3,9-trimethyl-6H-thieno[3,2-f][1,2,4]triazolo[4,3-a][1,4]diazepin-6-yl)acetamido)phenoxy)ethoxy)ethyl)-3-(2-oxoindolin-5-yl)benzamide]

More lines, now with the values behind:

Row | SMILES | GI50
7 | Cc1sc2c(c1C)C(c1ccc(Cl)cc1)=N[C@@H](CC(=O)NCCOCCOCCC(=O)N1CCN(c3ccc(-c4ccc5c(c4)CC(=O)N5)cn3)CC1)c1nnc(C)n1-2 [Compound 120] | 0.001 to 0.1 µM
8 | Cc1sc2c(c1C)C(c1ccc(Cl)cc1)=N[C@@H](CC(=O)NC1CCN(c3ncccc3-c3ccc4c(c3)CC(=O)N4)CC1)c1nnc(C)n1-2 [Compound 136, (S)-2-(4-(4-chlorophenyl)-2,3,9-trimethyl-6H-thieno[3,2-f][1,2,4]triazolo[4,3-a][1,4]diazepin-6-yl)-N-(1-(3-(2-oxoindolin-5-yl)pyridin-2-yl)piperidin-4-yl)acetamide] | 0.001 to 0.1 µM
9 | Cc1sc2c(c1C)C(c1ccc(Cl)cc1)=N[C@@H](CC(=O)NCCOCCOCCOCCNc1ccc(-c3ccc4c(c3)NC(=O)C4)cn1)c1nnc(C)n1-2 [Compound 100, (S)-2-(4-(4-chlorophenyl)-2,3,9-trimethyl-6H-thieno[3,2-f][1,2,4]triazolo[4,3-a][1,4]diazepin-6-yl)-N-(2-(2-(2-(2-((5-(2-oxoindolin-6-yl)pyridin-2-yl)amino)ethoxy)ethoxy)ethoxy)ethyl)acetamide] | 0.1 to 1 µM
10 | Cc1sc2c(c1C)C(c1ccc(Cl)cc1)=N[C@@H](CC(=O)NCCCCNc1ncccc1-c1ccc3c(c1)CC(=O)N3)c1nnc(C)n1-2 [Compound 139, (S)-2-(4-(4-chlorophenyl)-2,3,9-trimethyl-6H-thieno[3,2-f][1,2,4]triazolo[4,3-a][1,4]diazepin-6-yl)-N-(4-((3-(2-oxoindolin-5-yl)pyridin-2-yl)amino)butyl)acetamide] | 0.1 to 1 µM
11 | Cc1sc2c(c1C)C(c1ccc(Cl)cc1)=N[C@@H](CC(=O)NCCOCCOc1ccc(-c3ccc4c(c3)CC(=O)N4)cn1)c1nnc(C)n1-2 [Compound 132, (S)-2-(4-(4-chlorophenyl)-2,3,9-trimethyl-6H-thieno[3,2-f][1,2,4]triazolo[4,3-a][1,4]diazepin-6-yl)-N-(2-(2-((5-(2-oxoindolin-5-yl)pyridin-2-yl)oxy)ethoxy)ethyl)acetamide] | 0.001 to 0.1 µM
12 | Cc1sc2c(c1C)C(c1ccc(Cl)cc1)=N[C@@H](CC(=O)N1CCN(c3ccc(-c4ccc5c(c4)CC(=O)N5)cn3)CC1)c1nnc(C)n1-2 [Compound 119, (S)-5-(6-(4-(2-(4-(4-chlorophenyl)-2,3,9-trimethyl-6H-thieno[3,2-f][1,2,4]triazolo[4,3-a][1,4]diazepin-6-yl)acetyl)piperazin-1-yl)pyridin-3-yl)indolin-2-one] | 0.1 to 1 µM
13 | Cc1sc2c(c1C)C(c1ccc(Cl)cc1)=N[C@@H](CC(=O)NC1CCN(c3ccc(-c4ccc5c(c4)CC(=O)N5)cn3)C1)c1nnc(C)n1-2 (stereo partly drawn) [Compound 129, 2-((S)-4-(4-chlorophenyl)-2,3,9-trimethyl-6H-thieno[3,2-f][1,2,4]triazolo[4,3-a][1,4]diazepin-6-yl)-N-(1-(5-(2-oxoindolin-5-yl)pyridin-2-yl)pyrrolidin-3-yl)acetamide] | 0.001 to 0.1 µM
14 | Cc1sc2c(c1C)C(c1ccc(Cl)cc1)=N[C@@H](CC(=O)NCCOCCOCCOCCNc1cc(-c3ccc4c(c3)CC(=O)N4)ccn1)c1nnc(C)n1-2 [Compound 097, (S)-2-(4-(4-chlorophenyl)-2,3,9-trimethyl-6H-thieno[3,2-f][1,2,4]triazolo[4,3-a][1,4]diazepin-6-yl)-N-(2-(2-(2-(2-((4-(2-oxoindolin-5-yl)pyridin-2-yl)amino)ethoxy)ethoxy)ethoxy)ethyl)acetamide] | > 1 µM
15 | Cc1sc2c(c1C)C(c1ccc(Cl)cc1)=N[C@@H](CC(=O)NCCOCCOCCOCCNc1ccc(-c3ccc4c(c3)CC(=O)N4C)cn1)c1nnc(C)n1-2 [Compound 121, (S)-2-(4-(4-chlorophenyl)-2,3,9-trimethyl-6H-thieno[3,2-f][1,2,4]triazolo[4,3-a][1,4]diazepin-6-yl)-N-(2-(2-(2-(2-((5-(1-methyl-2-oxoindolin-5-yl)pyridin-2-yl)amino)ethoxy)ethoxy)ethoxy)ethyl)acetamide] | 0.1 to 1 µM
16 | Cc1sc2c(c1C)C(c1ccc(Cl)cc1)=N[C@@H](CC(=O)Nc1ccc(OCCOCCOCCOCCNC(=O)c3cccc(-c4ccc5c(c4)CC(=O)N5)c3)cc1)c1nnc(C)n1-2 [Compound 103, (S)—N-(2-(2-(2-(2-(4-(2-(4-(4-chlorophenyl)-2,3,9-trimethyl-6H-thieno[3,2-f][1,2,4]triazolo[4,3-a][1,4]diazepin-6-yl)acetamido)phenoxy)ethoxy)ethoxy)ethoxy)ethyl)-3-(2-oxoindolin-5-yl)benzamide] | 0.1 to 1 µM
17 | Cc1sc2c(c1C)C(c1ccc(Cl)cc1)=N[C@@H](CC(=O)NCCC1CCN(c3ccc(-c4ccc5c(c4)CC(=O)N5)cn3)CC1)c1nnc(C)n1-2 [Compound 134, (S)-2-(4-(4-chlorophenyl)-2,3,9-trimethyl-6H-thieno[3,2-f][1,2,4]triazolo[4,3-a][1,4]diazepin-6-yl)-N-(2-(1-(5-(2-oxoindolin-5-yl)pyridin-2-yl)piperidin-4-yl)ethyl)acetamide] | 0.001 to 0.1 µM
18 | Cc1sc2c(c1C)C(c1ccc(Cl)cc1)=N[C@@H](CC(=O)NCCOCCOCCNc1ccc(-c3ccc4c(c3)CC(=O)N4)cn1)c1nnc(C)n1-2 [Compound 116, (S)-2-(4-(4-chlorophenyl)-2,3,9-trimethyl-6H-thieno[3,2-f][1,2,4]triazolo[4,3-a][1,4]diazepin-6-yl)-N-(2-(2-(2-((5-(2-oxoindolin-5-yl)pyridin-2-yl)amino)ethoxy)ethoxy)ethyl)acetamide] | 0.001 to 0.1 µM
